Test [1] deals with T1, Transcription regulator protein BACH1 (Homo sapiens) (UniProt O14867).
T1 sequence (whole entry): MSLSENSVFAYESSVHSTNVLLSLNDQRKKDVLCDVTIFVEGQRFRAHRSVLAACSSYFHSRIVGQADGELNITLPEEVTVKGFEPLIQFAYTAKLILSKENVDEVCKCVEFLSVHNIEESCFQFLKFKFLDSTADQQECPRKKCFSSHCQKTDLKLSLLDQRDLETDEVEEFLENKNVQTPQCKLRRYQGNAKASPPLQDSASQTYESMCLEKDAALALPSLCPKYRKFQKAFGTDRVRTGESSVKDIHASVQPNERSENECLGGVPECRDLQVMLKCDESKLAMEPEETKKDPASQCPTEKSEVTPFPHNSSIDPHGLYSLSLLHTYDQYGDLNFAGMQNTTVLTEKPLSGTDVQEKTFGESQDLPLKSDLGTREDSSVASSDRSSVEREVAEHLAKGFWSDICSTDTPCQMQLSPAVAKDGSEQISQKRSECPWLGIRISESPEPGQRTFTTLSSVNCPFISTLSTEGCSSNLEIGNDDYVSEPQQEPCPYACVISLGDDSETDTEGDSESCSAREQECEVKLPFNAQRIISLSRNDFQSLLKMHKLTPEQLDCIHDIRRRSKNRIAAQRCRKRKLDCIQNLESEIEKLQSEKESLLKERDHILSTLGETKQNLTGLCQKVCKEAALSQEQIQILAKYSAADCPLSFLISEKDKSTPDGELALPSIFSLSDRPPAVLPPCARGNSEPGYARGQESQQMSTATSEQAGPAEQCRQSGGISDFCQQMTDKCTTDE
The test can be described thus: Inhibition of Bach1 in normal human lung fibroblasts assessed as induction of HMOX protein expression at 0.312 uM incubated for 16 to 18 hrs by immunostaining relative to control.

For test [2], the target named is T1, Transcription regulator protein BACH1 (Homo sapiens). The test can be described thus: Inhibition of Bach1 in normal human lung fibroblasts assessed as induction of HMOX protein expression at 0.625 uM incubated for 16 to 18 hrs by immunostaining relative to control.
Test [3] shares this target. The test can be described thus: Inhibition of Bach1 in normal human lung fibroblasts assessed as induction of HMOX protein expression at 0.019 uM incubated for 16 to 18 hrs in presence of 0.0024 uM Nrf2 activator Bardoxolone methyl by immunostaining relative to control.
For test [4] the target is unchanged. Briefly: Inhibition of Bach1 in normal human lung fibroblasts assessed as induction of HMOX protein expression at 0.039 uM incubated for 16 to 18 hrs in presence of 0.0024 uM Nrf2 activator Bardoxolone methyl by immunostaining relative to control.
The target is the same in test [5]. The test can be described thus: Inhibition of Bach1 in normal human lung fibroblasts assessed as induction of HMOX protein expression at 0.078 uM incubated for 16 to 18 hrs in presence of 0.0024 uM Nrf2 activator Bardoxolone methyl by immunostaining relative to control.
Test [6] has the same target. The test can be described thus: Inhibition of Bach1 in normal human lung fibroblasts assessed as induction of HMOX protein expression at 0.156 uM incubated for 16 to 18 hrs in presence of 0.0024 uM Nrf2 activator Bardoxolone methyl by immunostaining relative to control.
For test [7] the target is unchanged. The test can be described thus: Inhibition of Bach1 in normal human lung fibroblasts assessed as induction of HMOX protein expression at 0.625 uM incubated for 16 to 18 hrs in presence of 0.0024 uM Nrf2 activator Bardoxolone methyl by immunostaining relative to control.
Test [8] has the same target. Briefly: Inhibition of Bach1 in normal human lung fibroblasts assessed as induction of HMOX protein expression at 0.312 uM incubated for 16 to 18 hrs in presence of 0.0048 uM Nrf2 activator Bardoxolone methyl by immunostaining relative to control.
For test [9] the target is unchanged. The test can be described thus: Inhibition of Bach1 in normal human lung fibroblasts assessed as induction of HMOX protein expression at 1.25 uM incubated for 16 to 18 hrs in presence of 0.0048 uM Nrf2 activator Bardoxolone methyl by immunostaining relative to control.
The target is the same in test [10]. The test can be described thus: Inhibition of Bach1 in normal human lung fibroblasts assessed as induction of HMOX protein expression at 0.039 uM incubated for 16 to 18 hrs in presence of 0.0097 uM Nrf2 activator Bardoxolone methyl by immunostaining relative to control.
The target is the same in test [11]. Briefly: Inhibition of Bach1 in normal human lung fibroblasts assessed as induction of HMOX protein expression at 0.625 uM incubated for 16 to 18 hrs in presence of 0.0097 uM Nrf2 activator Bardoxolone methyl by immunostaining relative to control.
Test [12] shares this target. Briefly: Inhibition of Bach1 in normal human lung fibroblasts assessed as induction of HMOX protein expression at 0.312 uM incubated for 16 to 18 hrs in presence of 0.019 uM Nrf2 activator Bardoxolone methyl by immunostaining relative to control.
For test [13] the target is unchanged. The test can be described thus: Inhibition of Bach1 in normal human lung fibroblasts assessed as induction of HMOX protein expression at 0.625 uM incubated for 16 to 18 hrs in presence of 0.019 uM Nrf2 activator Bardoxolone methyl by immunostaining relative to control.
Test [14] shares this target. Briefly: Inhibition of Bach1 in normal human lung fibroblasts assessed as induction of HMOX protein expression at 0.312 uM incubated for 16 to 18 hrs in presence of 0.078 uM Nrf2 activator Bardoxolone methyl by immunostaining relative to control.
The target is the same in test [15]. The test can be described thus: Inhibition of Bach1 in normal human lung fibroblasts assessed as induction of HMOX protein expression at 0.625 uM incubated for 16 to 18 hrs in presence of 0.078 uM Nrf2 activator Bardoxolone methyl by immunostaining relative to control.
Test [16] has the same target. The test can be described thus: Inhibition of Bach1 in normal human lung fibroblasts assessed as induction of HMOX protein expression at 1.25 uM incubated for 16 to 18 hrs in presence of 0.078 uM Nrf2 activator Bardoxolone methyl by immunostaining relative to control.
Test [17] has the same target. The test can be described thus: Inhibition of Bach1 in normal human lung fibroblasts assessed as induction of HMOX protein expression at 2.5 uM incubated for 16 to 18 hrs in presence of 0.078 uM Nrf2 activator Bardoxolone methyl by immunostaining relative to control.
Test [18] shares this target. Briefly: Inhibition of Bach1 in normal human lung fibroblasts assessed as induction of HMOX protein expression at 0.019 uM incubated for 16 to 18 hrs in presence of 0.156 uM Nrf2 activator Bardoxolone methyl by immunostaining relative to control.
Test [19] shares this target. Briefly: Inhibition of Bach1 in normal human lung fibroblasts assessed as induction of HMOX protein expression at 1.25 uM incubated for 16 to 18 hrs in presence of 0.156 uM Nrf2 activator Bardoxolone methyl by immunostaining relative to control.
For test [20] the target is unchanged. The test can be described thus: Inhibition of Bach1 in normal human lung fibroblasts assessed as induction of HMOX protein expression at 2.5 uM incubated for 16 to 18 hrs in presence of 0.156 uM Nrf2 activator Bardoxolone methyl by immunostaining relative to control.
For test [21] the target is unchanged. The test can be described thus: Inhibition of Bach1 in normal human lung fibroblasts assessed as induction of HMOX protein expression at 0.039 uM incubated for 16 to 18 hrs in presence of 0.312 uM Nrf2 activator Bardoxolone methyl by immunostaining relative to control.

Take `CNC(=O)c1ccc2c(c1)nc(Nc1nc3ccc(OC(F)(F)F)cc3s1)n2C`: the fold change (FC) in [1] is 9.82; in test [2], 15; in test [3], 3.24; in test [4] it was 2.32; in test [5], 4.25; in [6] it was 7.32. Further, the fold change (FC) in test [7] was determined as 15.7; in [8], 13.6; in test [9] it was 17.3; in test [10], 5.31; in [11] it was 17.2; in test [12] it was 17.7. Further, the fold change (FC) in test [13] stood at 16.8; in [14], 21.1; in [15], 18.6; in test [16], 15.2; in [17], 14.3; in test [18], 22.9. The fold change (FC) in [19] was 16.6; in test [20], 12.5; in [21] it was 17.4.

For the origin of these results see ChEMBL document CHEMBL4421728, “Bach1 Inhibitors in Combination with Nrf2 Activators and Pharmaceutical Compositions Thereof” (2017).
